Reference: patent US3948890A, “4H-1,3-benzoxazin-2-one-3-acetohydroxamic acid derivatives” (Farmitalia Societa Farmaceutica Italia, priority 1971, dated 1976)
Like-named read-outs stand apart in the source and are kept apart here.

Experiments:
[1] = Acute toxicity (LD50), single oral and intravenous administration; format: in vivo, albino male mice; conditions: mouse, in vivo, single administration, within 48 hours
Description: (§1) The acute toxicity (LD50), determined on albino male mice (weight 20-22 g) by a single oral and intravenous administration, is settled within 48 hours.

[2] = test system: reserpinized swimming rat; assay: Antireserpine effect in a behavior test, swimming rat; format: in vivo
[3] = Antagonism to the reserpine induced syndrome (ptosis, rectal temperature); format: in vivo; design: Ptosis: scale not given here
[4] = Highest tolerated intraperitoneal dose; conditions: in vivo, ip
albino male mice [5] = assay: Acute toxicity (LD50), single oral and intravenous administration; format: in vivo; conditions: intravenous route
Description: as §1

albino male mice [6] = assay: Spontaneous behavior, motor coordination, muscular tension and nociceptive reflexes; format: in vivo; conditions: up to 200 mg/kg i.v., observation 5 hours
Excerpt: Among the compounds of the invention, 4H-1,3-benzoxazin-2-one-3-[N-(β-hydroxyethyl)-piperazino-methyl]-acetohydroxamic acid has been particularly studied and compared with 4H-1,3-benzoxazin-2-one-3-acetohydroxamic acid.

[7] = Table 4, 50 mg/kg intraperitoneal, reserpine not stated
[8] = 50 mg/kg intraperitoneal, + R (reserpine)
[9] = 50.0 mg/kg intraperitoneal, + R (reserpine)
[10] = 100.0 mg/kg intraperitoneal, + R (reserpine)
[11] = 25 mg/kg intraperitoneal, + R (reserpine)
[12] = reserpine alone, 3.0 mg/kg intraperitoneal
[13] = 25.0 mg/kg intraperitoneal, + R (reserpine)

CCN(CC)CCN(CC)CN(O)C(=O)CN1Cc2ccccc2OC1=O [Example 2, 4H-1,3-benzoxazin-2-one-3-[(N,N,N'triethyl)-ethylenediaminomethyl]-acetohydroxamic acid]
LD50 at 48 h ([1]; po, per os): 2550 mg/kg
LD50 at 48 h ([1]; intravenous): 328 mg/kg
Average time to get out of the basin [2, 7]: 10 s
Number of the animals which do not get out [2, 7]: 1/10
test results ([2]; in words): good test results

O=C(CN1Cc2ccccc2OC1=O)NO [4H-1,3-benzoxazin-2-one-3-acetohydroxamic acid]
LD50 at 48 h ([1]; po, per os): ~2000 mg/kg
LD50 at 48 h ([1]; intravenous): 350 mg/kg
Average time to get out of the basin [2, 8]: 25 s
Number of the animals which do not get out [2, 8]: 0/10
Ptosis [3, 9]: 29
Rectal temperature [3, 9]: 36.0 °C
Ptosis [3, 10]: 5
Rectal temperature [3, 10]: 38.1 °C

CN(C)CCCN1c2ccccc2CCc2ccccc21 [Imipramine, reference compound]
Average time to get out of the basin [2, 11]: 40 s
Number of the animals which do not get out [2, 11]: 7/10
MTD ([4]; read-out: highest tolerated dose): 50 mg/kg
Ptosis [3, 9]: 29
Rectal temperature [3, 9]: 36.0 °C

COC(=O)[C@H]1[C@H]2C[C@@H]3c4[nH]c5cc(OC)ccc5c4CCN3C[C@H]2C[C@@H](OC(=O)c2cc(OC)c(OC)c(OC)c2)[C@@H]1OC [Reserpine, reference compound]
getting out of a basin full of water ([2]; in words, reserpinized animals): can no longer get out of a basin full of water
Number of the animals which do not get out ([2]; reserpine alone, 5 mg/kg intraperitoneal): 10/10
Ptosis [3, 12]: 40
Rectal temperature [3, 12]: 32.1 °C

O=C(CN1Cc2ccccc2OC1=O)N(O)CN1CCN(CCO)CC1 [4H-1,3-benzoxazin-2-one-3-[N-(β-hydroxyethyl)piperazinomethyl] -acetohydroxamic acid]
times less toxic than Imipramine (albino male mice [5]): about 20 times
less toxic than 4H-1,3-benzoxazin-2-one-3-acetohydroxamic acid (albino male mice [5]; in words): about half again less toxic
LD50 at 48 h ([1]; po, per os): > 3000 mg/kg
LD50 at 48 h ([1]; intravenous): 576 mg/kg
Average time to get out of the basin [2, 11]: 28 s
Number of the animals which do not get out [2, 11]: 0/10
getting out of a basin full of water ([2]; in words, pretreated plus reserpine, versus control animals): manage to get out of the basin within a period of time slightly longer than that of the control animals
MTD ([4]; read-out: tolerated up to dose): ≥ 300 mg/kg
Ptosis [3, 13]: 24
Rectal temperature [3, 13]: 33.1 °C
Ptosis [3, 9]: 19
Rectal temperature [3, 9]: 35.6 °C
Ptosis [3, 10]: 2
Rectal temperature [3, 10]: 37.6 °C
antagonizing the hypothermia induced by reserpine ([3]; in words, Table 1): most active
antagonizing the ptosis induced by reserpine ([3]; in words, Table 1): most active
motor apparatus coordination (albino male mice [6]): does not modify
muscular tension (albino male mice [6]): does not modify
nociceptive reflexes (albino male mice [6]): does not modify
spontaneous behavior (albino male mice [6]): does not modify
